“Also recorded” adds a separate entry of the source.

The values that follow come from patent US20230041065A1, “METHODS FOR GENERATING HEMATOPOIETIC STEM CELLS” (The Brigham and Women`s Hospital, Inc., priority 2019, published 2023).

The test system of test [1] is human iPSC-derived MACS-sorted CD34+ cells. The experiment in a line: Hematopoietic CFU assays of human iPSC-derived MACS-sorted CD34+ cells. The class given is cell-based. The conditions noted are these: 20,000 hCD34+ cells per sample. The method, then:
Embryoid body and hemogenic endothelium differentiation was performed as described in (Sugimura et al. 2017; Ditadi et al. 2015). Briefly, hiPSC colonies were dissociated with 0.05% trypsin for 5 min at 37° C., washed with PBS+2% FBS, and resuspended in StemPro-34 (Invitrogen, 10639-011) supplemented with L-glutamine (2 mM), penicillin/streptomycin ([…]), ascorbic acid (1 mM), human holo-Transferrin ([…], Sigma T0665), monothioglycerol (MTG, 0.4 mM), BMP4 (10 ng/ml), and Y-27632 (10 μM). Five million cells were seeded into 10 cm dishes (Ezsphere, Asahi Glass) for the spheroid formation. On Day 1, bFGF (5 ng/ml) and BMP4 (10 ng/ml) was added to the medium. On Day 2, the media was changed with the StemPro-34 supplemented with SB431542 (6 μM), CHIR99021 (3 μM), bFGF (5 ng/ml), and BMP4 (10 ng/ml). On Day 3, the medium was replaced with StemPro-34 supplemented with VEGF (15 ng/ml) and bFGF (10 ng/ml). On day 6, the medium was changed to StemPro-34 supplemented with bFGF (5 ng/ml), VEGF (15 ng/ml), interleukin (IL)-6 (10 ng/ml), IGF-1 (25 ng/ml), IL-11 (5 ng/ml), SCF (50 ng/ml) and EPO (2IU). The cells were maintained in a 5% CO2, 5% O2 and 95% humidity incubator. All cytokines were purchased from Peprotech. […]

Test [2] deals with donor-derived blood lineages. Briefly: Functional and phenotypic analyses of donor-derived blood lineages in primary transplant. The class given is in vivo, mouse. The method, then: Pulsating blood vessels like conditions were stimulated in vitro using Flexcell FX-4000 machine. To analyze roles of pharmacological targets in regulating the endothelial-to-HSC transition, mouse embryo-derived AGM or whole mouse embryo were exposed ex vivo with biomechanical stretching, chemicals, or drugs. Next, hematopoietic colony formation assays were performed by incubating mouse AGM-derived cells in StemCell M3434 media for seven days. Serial transplantation of AGM-derived HSCs in lethally irradiated SJL mice were performed. The stem cell frequency upon biomechanical stretching was analyzed using a limiting dilution assay. To characterize properties of AGM-HSC-derived blood cells in primary transplants, percentage chimerism and reconstitution was measured using FACS, globin transcripts were analyzed using quantitative reverse transcriptase-PCR, myeloperoxidase amount was measured using PicoKine ELISA kit, TCR-β rearrangement was analyzed using PCR for TCR-β locus, pre-immune IG detection was analyzed using Thermo-Fisher Mouse Ig Isotyping kit, and delayed-type hypersensitivity was analyzed by injecting sheep RBC (Rockland Immunochemicals) in the footpad of pre-sensitized mice.
FACS was used to sort erythroid precursors (Cd45.2^+, Ter119^+, Cd71^+) from the unlysed bone marrow isolated from AGM-transplanted mice. Total RNA was isolated using the RNAeasy Minikit (QIAGEN) and cDNA synthesis performed using Superscript III (Invitrogen). Quantitative real-time PCR was performed using SYBR Green (QuantaBio) on an MX3000P machine with the indicated primers (Sankaran et al., 2009). We normalized the expression to that of glyceraldehyde-3-phosphate-dehydrogenase (Gapdh) (Ochida et al., 2010).
Neutrophils (Cd45.2^+, Gr1^+, Mac1^+) were FACS sorted from the isolated bone marrow of 16 week-primary transplanted mice and cultured in IMDM with 10% FBS overnight (500,000 cells/mL) in 24-well plates. Supernatant was collected and the MPO concentration measured using the Mouse MPO/Myeloperoxidase PicoKine™ ELISA Kit (Boster). The MPO concentration was also measured in blood serum.
T cells (Cd45.2^+, Cd3^+) and myeloid cells (Cd45.2^+, Mac1^+) were FACS sorted from the splenocytes of 16 week-primary transplanted mice. Next, genomic DNA was extracted, and PCR performed for DH (β2.1-JH (32.7 rearrangements within TCR-β locus. Our samples were denatured (94° C., 1 min), annealed (63° C., 2 mins) and extended (72° C., 2 mins) for 35 cycles. Primer sequences are as follows:
Transplant mice were sensitized with sheep red blood cells (sRBC, 10^9 cells/mL, 50 μL per site, Rockland Immunochemicals) through subcutaneous (lower back) and intradermal injections (right footpad). […] After 48 hours of the challenge, the footpad thickness was measured with a micro-caliper. […]

For `Clc1cccc(Cl)c1CSc1nnc(-c2cnccn2)s1` [Yoda1, 2-[5-[[(2,6-Dichlorophenyl)methyl]thio]-1,3,4-thiadiazol-2-yl]-pyrazine], the “multipotent GEMM progenitor formation” value in test [1] was “elevated multipotent hematopoietic progenitor formation and human hematopoiesis; also recorded: stimulates multipotent GEMM progenitor formation and human hematopoiesis”. Also, in test [2] (bone marrow Cd71+Ter119+ sorted cells, primary transplant), the “expression of adult and embryonic hemoglobin types in donor erythroid cells” value is “reconstitutes to red cells containing adult hemoglobin”. For the same molecule, the “myeloperoxidase (MPO) of donor neutrophils” value in test [2] (bone marrow Gr1+Mac1+ sorted cells, overnight culture, ELISA) was “reconstitute to functional myeloid cells displaying sufficient MPO levels”. For the same molecule, in test [2] (primary transplant mice, footpad), the delayed-type hypersensitivity entry is reported as “possess T-cell mediated immune response”. In addition, the “TCRβ locus rearrangement of donor T cells” value in test [2] (spleen-sorted Cd3+ T cells) was “display T-cell receptor β (TCR β) rearrangement”.
